The results in this text go back to article PMC3082957 (ACS chemical neuroscience, 2011).

Each structure is given as a SMILES string. Bounds are passed on as bounds.

Common to all, as to format: cell-based
The subject of assay [1] is voltage-gated Na+ channels in CAD cells.
For assay [2] the test system is unchanged. The note with it: for fraction of channels in a slow-inactivated state (1 minus the normalized INa): at −50 mV.
Assay [3] has the same test system. The note with it: 100 µM.
The test system is the same in assay [4]. Kind of assay: Frequency. The note with it: 100 µM; 30 pulses at 10 Hz, holding −80 mV.
The test system is the same in assay [5]. Description: Rate of development of inhibition/slow inactivation of Na+ currents in CAD cells. The conditions noted are these: 100 µM; vehicle 0.51 ± 0.08.
Assay [6] shares this test system. This is another data set of the same source.
[7] abbreviates: 30 µM, UV irradiation, then washed 5 min.

Take `COC[C@@H](NC(C)=O)C(=O)NCc1ccccc1` [(R)-1, (R)-N-benzyl 2-acetamido-3-methoxypropionamide]: the “reduction of peak inward Na+ current” value in assay [1] (100 µM, CAD cells held at −80 mV, versus 0.1% DMSO) is 40%. Moreover, in assay [2] (100 µM), the “slow inactivation observed at potentials more depolarized than” value is reported as more than −80 mV and the “fraction of channels in a slow-inactivated state (1 minus the normalized INa)” value came out at 0.65 ± 0.08. The “fraction of Na+ current available at −50 mV” value in assay [2] (100 µM, 5 s conditioning prepulse) worked out at 0.35 ± 0.01 fractional units. The “maximal fraction of current unavailable by depolarization” value in assay [2] (100 µM, 20 mV as printed, control 0.62 ± 0.03) turned out to be 0.26 ± 0.01. Also, the “V1/2 of steady-state fast inactivation” value in assay [3] (DMSO control −67.5 ± 1.0 mV, not different (p > 0.05)) is −69.5 ± 1.3 mV. Further, the “peak current lower than control by the last pulse” value in assay [4] was ~ 10%. Further, in assay [5], the “fraction of current available at 8 s prepulse duration” value is listed as 0.31 ± 0.01. The “recovery of current amplitude at −10 mV after wash compared with pre-drug values” in assay [6] (100 µM, 10 min, 5-min wash) came out at 74%. In addition, the “effect on slow inactivation following the 5-min wash” value in assay [6] (100 µM, 10 min at 37 °C, then 5-min wash, −50 mV) is listed as “completely reversed”.

For `COC[C@@H](NC(C)=O)C(=O)NCc1ccc(C2(C(F)(F)F)N=N2)cc1` [(R)-7], the “fraction of channels in a slow-inactivated state (1 minus the normalized INa)” value in assay [2] (100 µM) is listed as 0.66 ± 0.05. Besides, in assay [2] (CAD cells, versus IC50 85 µM of (R)-1), the “IC50 for slow inactivation, fold lower compared with (R)-1” value turned out to be 7.1 fold. The “slope (k) of fast inactivation curve, shallower than DMSO-treated cells” value in assay [3] (p<0.05) is listed as “about 55%”. In addition, in assay [6] (setting [7]), the “Na+ channels remaining in a slow-inactivated state” value is listed as “about 10%” and the “recovery of current amplitude at −10 mV compared with DMSO control or UV alone” value was determined as 87%. The “Na+ channels accumulated in the slow-inactivated state” value in assay [6] (30 µM, photoactivated 365 nm 8 min then 312 nm 1 min) is on record as “about 35%”. In addition, the “Na+ channels in the slow-inactivated state” value in assay [6] (30 µM, without light) turned out to be 65%. Further, in assay [6] (pre-drug, drug, UV and washout conditions, (R)-5 40 µM, (R)-6 40 µM, (R)-7 30 µM), the “changes in steady-state activation or fast inactivation” value was “no changes”.

As for `NC1=N[C@H](O)[C@H]2[C@H]3O[C@]4(O)O[C@@H]([C@@H](O)[C@@]2(N1)[C@@H]4O)[C@]3(O)CO` [tetrodotoxin], the “block of Na+ current” value in assay [1] was “almost all of the current was blocked”.
